Experimental data published in publication PMC12510010 (The Journal of Biological Chemistry, 2025).

Experiments:
Assay type in all cases: cell-based
[1] = test system: MRP4 (cGMP in T-84 cells); assay: Ratiometric FRET of live cGMP production with sensor cygnet 2.1; settings: STc (100 nm) + MK571 (10 μM), vs STc alone, t test p = 0.0481
Procedure: (§1) Figure 4 GCC and MRP4 are functionally coupled in the intestinal epithelial cells. A, dot-blot analysis of GST-NHERF1-4 binding with the C-terminal 50 amino acids of MRP4 (MRP4C50) that contains the C-terminal PDZ-domain binding motif ETALCOOH. GST was used as a negative control. 2 and 20 ng of purified MRP4C50 were also immobilized on the nitrocellulose membrane as positive controls for detection. The detection of the protein interaction was performed using S-protein HRP Conjugate. B, the macromolecular complex formation assay between MRP4C50 and GCCC50via NHERF3. […] D, bar-graph represents the amount of cGMP measured using ELISA from total cell lysate and the supernatant (medium) from T-84 cells treated with ± STc (1 μM, 30 min) ± MK571 (10 μM, 30 min). n represents each data point with n = 6 to 8 obtained from three independent experiments. […] E, bar-graph represents the quantitation of fluid secretion in the mouse enteroids treated with ± STc (1 μM, 30 min) ± MK571 (10 μM, 30 min). Fluid secretion in the mouse enteroids calculated from n = 8 to 25 organoids per condition. […] F, bar-graph represents the quantitation of fluid secretion in the human enteroids treated with ± STc (1 μM, 30 min) ± MK571 (10 μM, 30 min). Fluid secretion in the human enteroids calculated from n = 12 to 17 organoids per condition. […]

[2] = test system: MRP4 (cGMP efflux, T-84 cells); assay: Extracellular cGMP (ELISA), T-84 cells; settings: STc (1 μM, 30 min) + MK571 (10 μM, 30 min), n = 6 to 8, three independent experiments
Procedure: as §1

[3] = test system: MRP4; fluid secretion in mouse enteroids; assay: STc-stimulated fluid secretion in mouse enteroids with MK571; settings: STc (1 μM, 30 min), MK571 (10 μM, 30 min), n = 8 to 25 organoids
Procedure: as §1
(§2) Intestinal crypt isolation and quantitation of fluid secretion in enteroids […]

[4] = test system: MRP4; fluid secretion in human enteroids; assay: STc-stimulated fluid secretion in human enteroids with MK571; settings: STc (1 μM, 30 min), MK571 (10 μM, 30 min), n = 12 to 17 organoids
Procedure: as §1, §2

CN(C)C(=O)CCSC(SCCC(=O)O)c1cccc(/C=C/c2ccc3ccc(Cl)cc3n2)c1 (stereo not shown) [MK571]
cGMP accumulation (ratiometric FRET) [1]: synergistic accumulation of cGMP
cGMP in the cell supernatant [2]: reduced cGMP concentrations (in the cell supernatant)
STc-stimulated fluid secretion with MK571 [3]: enhanced STc-stimulated fluid secretion
STc-stimulated fluid secretion with MK571 [4]: enhanced STc-stimulated fluid secretion
